In paper PMC3741162, “Structures of Streptococcus pneumoniae PiaA and Its Complex with Ferrichrome Reveal Insights into the Substrate Binding and Release of High Affinity Iron Transporters” (PLoS ONE, 2013):
Where a SMILES comes first, the peptide text is derived from it. [ ]: non-standard residue; d: D form. Orn(N5-OH,N5-Ac) = CC(=O)N(O)CCC[C@H](N)C(=O)O

What was measured:
PiaA [1] = target: T1, PiaA (Streptococcus pneumoniae, UniProt A0A0H2UPT5); experiment: ITC and crystal structure ([…] Å); assay type: binding
T1 construct: gene SP_1032; residues Asn23-Lys341, N-terminal 6×His-tag

PiaA [2] = target: T2, PiaA (Streptococcus pneumoniae, UniProt A0A0H2UPT5, W63A); experiment: ITC; assay type: binding
T2 construct: gene SP_1032; residues Asn23-Lys341, N-terminal 6×His-tag
T2 sequence (A0A0H2UPT5 23-341 W63A): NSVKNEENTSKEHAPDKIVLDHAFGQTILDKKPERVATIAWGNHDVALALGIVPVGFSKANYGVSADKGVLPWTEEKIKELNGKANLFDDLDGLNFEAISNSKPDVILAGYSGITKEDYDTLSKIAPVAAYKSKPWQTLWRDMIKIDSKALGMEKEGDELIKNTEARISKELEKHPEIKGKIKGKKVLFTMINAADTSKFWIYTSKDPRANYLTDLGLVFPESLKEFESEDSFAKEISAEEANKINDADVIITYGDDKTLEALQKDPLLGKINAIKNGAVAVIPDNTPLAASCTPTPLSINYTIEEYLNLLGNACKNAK

Compound: CC(=O)N([O-])CCC[C@@H]1NC(=O)CNC(=O)CNC(=O)CNC(=O)[C@H](CCCN([O-])C(C)=O)NC(=O)[C@H](CCCN([O-])C(C)=O)NC1=O.[Fe+3] [ferrichrome] (cyclo(GGG[Orn(N5-OH,N5-Ac)][Orn(N5-OH,N5-Ac)][Orn(N5-OH,N5-Ac)]))
- Kd (PiaA [1]): 0.0058 ± 0.0014 µM
- Kd (PiaA [2]): ~0.0328 µM
